{
  "source": "paper PMC4956498",
  "about": "(Planta medica, 2016)",
  "key": {"quinone reductase [1]": {"test_system": "quinone reductase", "assay": "Quinone reductase induction assay in Hepa 1c1c7 cells", "type": "cell-based, mouse", "conditions": "for CD, concentration required to double quinone reductase activity: 48 h"}, "Hepa 1c1c7 cells": {"test_system": "Hepa 1c1c7 cells", "assay": "Cytotoxicity against Hepa 1c1c7 cells", "type": "cell-based, mouse", "conditions": "read-out: IC50, concentration that inhibits 50% cell growth"}, "K-Ras": {"biological_target": "K-Ras (Homo sapiens, UniProt P01116)", "assay": "K-Ras inhibition assay in HT-29 cells", "type": "cell-based", "conditions": "for IC50: read-out: K-Ras inhibition IC50"}, "p65 subunit of NF-κB": {"biological_target": "p65 subunit of NF-κB (Homo sapiens, UniProt Q04206)", "sequence (Q04206 whole entry)": "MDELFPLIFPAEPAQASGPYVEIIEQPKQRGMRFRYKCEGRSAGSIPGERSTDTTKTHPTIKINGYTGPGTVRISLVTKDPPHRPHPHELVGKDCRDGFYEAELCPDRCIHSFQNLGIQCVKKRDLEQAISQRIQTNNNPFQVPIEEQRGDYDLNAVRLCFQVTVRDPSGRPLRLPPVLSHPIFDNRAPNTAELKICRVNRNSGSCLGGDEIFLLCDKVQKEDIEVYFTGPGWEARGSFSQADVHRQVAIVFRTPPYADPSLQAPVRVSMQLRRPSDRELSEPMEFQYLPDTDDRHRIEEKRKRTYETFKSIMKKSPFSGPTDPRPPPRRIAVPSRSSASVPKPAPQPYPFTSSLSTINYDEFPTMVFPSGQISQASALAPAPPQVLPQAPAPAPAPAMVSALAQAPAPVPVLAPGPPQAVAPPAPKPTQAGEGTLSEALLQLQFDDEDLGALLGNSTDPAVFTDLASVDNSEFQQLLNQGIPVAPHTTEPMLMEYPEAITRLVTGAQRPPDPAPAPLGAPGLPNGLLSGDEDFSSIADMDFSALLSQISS", "assay": "cell-based", "type": "cell-based"}, "in vitro": {"assay": "in vitro", "conditions": "human"}, "mice": {"test_system": "mice", "conditions": "cited from earlier work; for LD50, acute toxicity to mice: ip administration"}, "[2]": {"test_system": "CCD-112CoN human normal colon cell line", "conditions": "cited from earlier work"}, "quinone reductase [3]": {"test_system": "quinone reductase", "conditions": "in vitro; cited from earlier work"}, "[4]": {"conditions": "read-out: NF-κB p65 inhibition IC50, in HeLa cells"}},
  "note": "Like-named read-outs stand apart in the source and are kept apart here.",
  "data": [
    {"compound": "COC1=CC2=C(O[C@H]3COc4cc5c(cc4[C@@]3(O)C2=O)OCO5)C(CC=C(C)C)(CC=C(C)C)C1=O", "note": "(relative stereo) [Compound 3, (6aS,12aS)-rel-6a,12a-dihydro-12a-hydroxy-10-methoxy-8,8-bis(3-methyl-2-buten-1-yl)-[1]benzopyrano[2,3-c]-1,3-dioxolo[4,5-g][1] benzopyran-9,12(6H, 8H)-dione]", "values": [
      {"measurement": "CI, chemopreventive index (IC50/CD)", "setting": "quinone reductase [1]", "value": ">16.8"},
      {"measurement": "CD, concentration required to double quinone reductase activity", "setting": "quinone reductase [1]", "value": 2.4, "unit": "µM"},
      {"measurement": "IC50", "setting": "Hepa 1c1c7 cells; Hepa 1c1c7 cell line, 48 h", "value": "> 40", "unit": "µM"}
    ]},
    {"compound": "COc1cc2c(cc1OC)C1(O)C(=O)c3c(O)cc4c(c3OC1CO2)C=CC(C)(C)O4", "note": "(single isomer, unassigned; (+)) [Compound 11, (+)-3-hydroxy-α-toxicarol]", "values": [
      {"measurement": "K-Ras inhibitory activity (in words)", "setting": "K-Ras", "value": "inactive"},
      {"measurement": "CD, concentration required to double quinone reductase activity", "setting": "quinone reductase [1]", "value": 6.6, "unit": "µM"},
      {"measurement": "IC50", "setting": "Hepa 1c1c7 cells; Hepa 1c1c7 cell line, 48 h", "value": "> 40", "unit": "µM"}
    ]},
    {"compound": "COc1cc2c(c3c1OC(C)(C)C=C3)O[C@H]1COc3cc4c(cc3[C@@]1(O)C2=O)OCO4", "note": "[Compound 1, (5aS ,12bS)-5a,12b-dihydro-12b-hydroxy-15-methoxy-2,2-dimethyl-2H-[1, 3]dioxolo[4,5-g]pyrano[2,3-c:6,5-f ‘]bis[1]benzopyran-13(6H)-one]", "values": [
      {"measurement": "IC50", "setting": "K-Ras", "value": 9.4, "unit": "µM"},
      {"measurement": "CD, concentration required to double quinone reductase activity", "setting": "quinone reductase [1]", "value": 19.8, "unit": "µM"},
      {"measurement": "IC50", "setting": "p65 subunit of NF-κB; [4]", "value": "> 10", "unit": "µM"},
      {"measurement": "IC50", "setting": "Hepa 1c1c7 cells; Hepa 1c1c7 cell line, 48 h", "value": "> 40", "unit": "µM"}
    ]},
    {"compound": "COc1cc2c(c3c1OC(C)(C)C=C3)O[C@H]1COc3cc4c(cc3[C@H]1C2=O)OCO4", "note": "[Compound 2, (5aR, 12bR)-5a,12b-dihydro-15-methoxy-2,2-dimethyl-2H-[1, 3]dioxolo[4,5-g]pyrano[2,3-c:6,5-f'] bis[1]benzopyran-13(6H)-one]", "values": [
      {"measurement": "CI, chemopreventive index (IC50/CD)", "setting": "quinone reductase [1]", "value": 8.1},
      {"measurement": "CD, concentration required to double quinone reductase activity", "setting": "quinone reductase [1]", "value": 2.2, "unit": "µM"},
      {"measurement": "IC50", "setting": "Hepa 1c1c7 cells; Hepa 1c1c7 cell line, 48 h", "value": 17.8, "unit": "µM"}
    ]},
    {"compound": "C=C(C)[C@H]1Cc2c(ccc3c2O[C@@H]2COc4cc(OC)c(OC)cc4[C@@H]2C3=O)O1", "note": "[Compound 7, (−)-rotenone]", "values": [
      {"measurement": "IC50", "setting": "p65 subunit of NF-κB", "value": "> 10", "unit": "µM"},
      {"measurement": "IC50 at 3 days", "setting": "in vitro", "value": 0.3, "unit": "µM"},
      {"measurement": "LD50, acute toxicity to mice", "setting": "mice", "value": 2.5, "unit": "mg/kg"},
      {"measurement": "Cytotoxicity against the CCD-112CoN human normal colon cell line (in words)", "setting": "[2]", "value": "lack of cytotoxicity"}
    ]},
    {"compound": "COc1cc2c(cc1-c1coc3c4c(c(OC)cc3c1=O)OC(C)(C)C=C4)OCO2", "note": "[Compound 8, ichthynone]", "values": [
      {"measurement": "CI, chemopreventive index (IC50/CD)", "setting": "quinone reductase [1]", "value": 19.4},
      {"measurement": "CD, concentration required to double quinone reductase activity", "setting": "quinone reductase [1]", "value": 1.8, "unit": "µM"},
      {"measurement": "IC50", "setting": "p65 subunit of NF-κB", "value": "> 10", "unit": "µM"},
      {"measurement": "IC50", "setting": "Hepa 1c1c7 cells; Mus musculus, Hepa-1c1c7, 48 h", "value": 35, "unit": "µM"},
      {"measurement": "IC50", "setting": "in vitro", "value": "> 10", "unit": "µM"}
    ]},
    {"compound": "C[S@@+]([O-])CCCCN=C=S", "note": "[L-sulforaphane, reference compound]", "values": [
      {"measurement": "CI, chemopreventive index (IC50/CD)", "setting": "quinone reductase [1]", "value": 40.8},
      {"measurement": "CD, concentration required to double quinone reductase activity", "setting": "quinone reductase [1]", "value": 0.51, "unit": "µM"},
      {"measurement": "IC50", "setting": "Hepa 1c1c7 cells; Mus musculus, Hepa-1c1c7, 48 h", "value": 20.9, "unit": "µM"}
    ]},
    {"compound": "COc1cc2c(cc1OC)[C@@H]1C(=O)c3ccc4c(c3O[C@@H]1CO2)C=CC(C)(C)O4", "note": "[deguelin, reference compound]", "values": [
      {"measurement": "LD50, acute toxicity to mice", "setting": "mice", "value": 5.0, "unit": "mg/kg"}
    ]},
    {"compound": "(−)-3-hydroxyrotenone [Compound 6]", "values": [
      {"measurement": "IC50", "setting": "K-Ras", "value": 3.1, "unit": "µM"},
      {"measurement": "IC50", "setting": "p65 subunit of NF-κB; [4]", "value": 5.3, "unit": "µM"},
      {"measurement": "Lethality to mice", "setting": "mice; dose of 5 mg/kg (ip)", "value": "lethal"},
      {"measurement": "Cytotoxicity against the CCD-112CoN human normal colon cell line (in words)", "setting": "[2]", "value": "lack of cytotoxicity"}
    ]},
    {"compound": "caeruleanone C", "values": [
      {"measurement": "Quinone reductase (QR) induction (in words)", "setting": "quinone reductase [3]", "value": "potently induce"}
    ]}
  ]
}
